Measured values as given in patent publication US11083725B2 (priority 2014, dated 2021).

Tested on: NHBE cells
Assay: Biolog metabolic array: substrate use by NHBE cells with or without CA09 infection
Assay type: cell-based, human
Details: for Substrate use, 590 nm absorbance normalized to zero hour, 0 hr: Biolog PMM2, 0 hr; for Substrate use, 590 nm absorbance normalized to zero hour, 1 hr: Biolog PMM2, 1 hr; for Substrate use, 590 nm absorbance normalized to zero hour, 5 hr: Biolog PMM2, 5 hr; for Substrate use, 590 nm absorbance normalized to zero hour, 7 hr: Biolog PMM2, 7 hr
[1] = Control (uninfected) NHBE cells
[2] = Virus (CA09-infected, MOI 1) NHBE cells
[3] = Virus: CA09-infected NHBE cells, MOI 1, Biolog PMM2
[4] = Virus (CA09-infected NHBE cells, MOI 1)

| Structure (SMILES) | 590 nm absorbance normalized to zero hour (substrate use), 0 hr [1] | 590 nm absorbance normalized to zero hour (substrate use), 1 hr [1] | 590 nm absorbance normalized to zero hour (substrate use), 3 hr [1] | 590 nm absorbance normalized to zero hour (substrate use), 4 hr [1] | 590 nm absorbance normalized to zero hour (substrate use), 6 hr [1] | 590 nm absorbance normalized to zero hour (substrate use), 8 hr [1] | 590 nm absorbance normalized to zero hour (substrate use), 9 hr [1] | 590 nm absorbance normalized to zero hour (substrate use), 10 hr [1] | 590 nm absorbance normalized to zero hour (substrate use), 11 hr [1] | Substrate use, 590 nm absorbance normalized to zero hour, 0 hr [1] | Substrate use, 590 nm absorbance normalized to zero hour, 1 hr [1] | Substrate use, 590 nm absorbance normalized to zero hour, 5 hr [1] | Substrate use, 590 nm absorbance normalized to zero hour, 7 hr [1] | 590 nm absorbance normalized to zero hour (substrate use), 0 hr [3] | 590 nm absorbance normalized to zero hour (substrate use), 1 hr [3] | 590 nm absorbance normalized to zero hour (substrate use), 2 hr [3] | 590 nm absorbance normalized to zero hour (substrate use), 3 hr [3] | 590 nm absorbance normalized to zero hour (substrate use), 4 hr [3] | 590 nm absorbance normalized to zero hour (substrate use), 5 hr [3] | 590 nm absorbance normalized to zero hour (substrate use), 6 hr [3] | other results |
| --- | --- | --- | --- | --- | --- | --- | --- | --- | --- | --- | --- | --- | --- | --- | --- | --- | --- | --- | --- | --- | --- |
| NCCCC(=O)O [g-Amino Butyric Acid] | 1.00 | 1.25 | 1.42 | 1.47 | 3.94 | 1.09 | 2.20 | 1.13 | 2.55 | 1.00 | 1.25 | 1.52 | 1.05 | 1.00 | 1.68 | 2.39 | 2.83 | 2.96 | 3.40 | 3.56 | 590 nm absorbance normalized to zero hour (substrate use), 0 hr [2]: 1.00; 590 nm absorbance normalized to zero hour (substrate use), 1 hr [2]: 1.68; 590 nm absorbance normalized to zero hour (substrate use), 2 hr [2]: 2.39; 590 nm absorbance normalized to zero hour (substrate use), 3 hr [2]: 2.83; 590 nm absorbance normalized to zero hour (substrate use), 4 hr [2]: 2.96; 590 nm absorbance normalized to zero hour (substrate use), 5 hr [2]: 3.40; 590 nm absorbance normalized to zero hour (substrate use), 6 hr [2]: 3.56; 590 nm absorbance normalized to zero hour (substrate use), 7 hr [2]: 3.70; 590 nm absorbance normalized to zero hour (substrate use), 8 hr [2]: 3.84; 590 nm absorbance normalized to zero hour (substrate use), 9 hr [2]: 3.99; 590 nm absorbance normalized to zero hour (substrate use), 10 hr [2]: 3.94; 590 nm absorbance normalized to zero hour (substrate use), 11 hr [2]: 3.74; 590 nm absorbance normalized to zero hour (substrate use), 7 hr [3]: 3.70; 590 nm absorbance normalized to zero hour (substrate use), 8 hr [3]: 3.84; 590 nm absorbance normalized to zero hour (substrate use), 9 hr [3]: 3.99; 590 nm absorbance normalized to zero hour (substrate use), 10 hr [3]: 3.94; 590 nm absorbance normalized to zero hour (substrate use), 11 hr [3]: 3.74 |
| O=C(O)CCCO [g-Hydroxy-Butyric Acid] | 1.00 | 1.24 | 1.92 | 1.86 | 0.79 | 1.94 | 2.09 | 2.05 | 2.76 | 1.00 | 1.24 | 1.71 | 1.88 | 1.00 | 0.53 | 0.53 | 0.41 | 0.44 | 0.50 | 0.54 | 590 nm absorbance normalized to zero hour (substrate use), 2 hr [1]: 1.38; 590 nm absorbance normalized to zero hour (substrate use), 0 hr [4]: 1.00; 590 nm absorbance normalized to zero hour (substrate use), 1 hr [4]: 0.53; 590 nm absorbance normalized to zero hour (substrate use), 2 hr [4]: 0.53; 590 nm absorbance normalized to zero hour (substrate use), 3 hr [4]: 0.41; 590 nm absorbance normalized to zero hour (substrate use), 4 hr [4]: 0.44; 590 nm absorbance normalized to zero hour (substrate use), 5 hr [4]: 0.50; 590 nm absorbance normalized to zero hour (substrate use), 6 hr [4]: 0.54; 590 nm absorbance normalized to zero hour (substrate use), 7 hr [4]: 0.56; 590 nm absorbance normalized to zero hour (substrate use), 8 hr [4]: 0.59; 590 nm absorbance normalized to zero hour (substrate use), 9 hr [4]: 0.62; 590 nm absorbance normalized to zero hour (substrate use), 10 hr [4]: 0.63; 590 nm absorbance normalized to zero hour (substrate use), 11 hr [4]: 0.53; 590 nm absorbance normalized to zero hour (substrate use), 7 hr [3]: 0.56; 590 nm absorbance normalized to zero hour (substrate use), 8 hr [3]: 0.59; 590 nm absorbance normalized to zero hour (substrate use), 9 hr [3]: 0.62; 590 nm absorbance normalized to zero hour (substrate use), 10 hr [3]: 0.63; 590 nm absorbance normalized to zero hour (substrate use), 11 hr [3]: 0.53 |
| OC[C@@H](O)[C@@H](O)CO [i-Erythritol] | 1.00 | 1.76 | 2.67 | 2.83 | 5.19 | 3.84 | 4.30 | 4.08 | 4.22 | 1.00 | 1.76 | 3.31 | 3.78 | 1.00 | 0.23 | 0.29 | 0.32 | 0.34 | 0.39 | 0.41 | 590 nm absorbance normalized to zero hour (substrate use), 2 hr [1]: 2.33; 590 nm absorbance normalized to zero hour (substrate use), 0 hr [4]: 1.00; 590 nm absorbance normalized to zero hour (substrate use), 1 hr [4]: 0.23; 590 nm absorbance normalized to zero hour (substrate use), 2 hr [4]: 0.29; 590 nm absorbance normalized to zero hour (substrate use), 3 hr [4]: 0.32; 590 nm absorbance normalized to zero hour (substrate use), 4 hr [4]: 0.34; 590 nm absorbance normalized to zero hour (substrate use), 5 hr [4]: 0.39; 590 nm absorbance normalized to zero hour (substrate use), 6 hr [4]: 0.41; 590 nm absorbance normalized to zero hour (substrate use), 7 hr [4]: 0.43; 590 nm absorbance normalized to zero hour (substrate use), 8 hr [4]: 0.45; 590 nm absorbance normalized to zero hour (substrate use), 9 hr [4]: 0.49; 590 nm absorbance normalized to zero hour (substrate use), 10 hr [4]: 0.50; 590 nm absorbance normalized to zero hour (substrate use), 11 hr [4]: 0.53; 590 nm absorbance normalized to zero hour (substrate use), 7 hr [3]: 0.43; 590 nm absorbance normalized to zero hour (substrate use), 8 hr [3]: 0.45; 590 nm absorbance normalized to zero hour (substrate use), 9 hr [3]: 0.49; 590 nm absorbance normalized to zero hour (substrate use), 10 hr [3]: 0.50; 590 nm absorbance normalized to zero hour (substrate use), 11 hr [3]: 0.53 |
